Data taken from the supplement of paper PMC10307832.

Assays:
Assay in all cases: relative viability (nuclei count vs DMSO), 5 days (fraction); higher = more cells survive
[1] = compound: CCN(CCO)CCCC(C)Nc1ccnc2cc(Cl)ccc12 [Hydroxychloroquine] + COc1cccc2cc(-c3nc([C@H]4CC[C@H](C(=O)O)CC4)n4ncnc(N)c34)[nH]c12 [OSI-027] (partner 0.5 µM)
In short: (§1)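 Cells from lung cancer lines were seeded into 1536-well plates and, one day later, dosed by pin tool. Treatments were either a single drug or a fixed dose of an anchor drug with five library-drug doses (not always all listed) in √10 steps. After 5 days, nuclei were stained in a one-step fixation (final 0.05% Triton X-100, 1% formaldehyde, 1 ug/ml Hoechst) and counted on 4× images, and relative viability is the treated-to-vehicle nuclei ratio, as the median of duplicate plates.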

[2] = compound: CCN(CCO)CCCC(C)Nc1ccnc2cc(Cl)ccc12 [Hydroxychloroquine] + CS(=O)(=O)CCNCc1ccc(-c2ccc3ncnc(Nc4ccc(OCc5cccc(F)c5)c(Cl)c4)c3c2)o1 [Lapatinib] (partner 2 µM)
In short: as §1

[3] = compound: CCN(CCO)CCCC(C)Nc1ccnc2cc(Cl)ccc12 [Hydroxychloroquine] + C[C@]1(O)C[C@@H](c2nc(-c3ccc4ccc(-c5ccccc5)nc4c3)c3c(N)nccn32)C1 [Linsitinib] (partner 1 µM)
In short: as §1

[4] = compound: CCN(CCO)CCCC(C)Nc1ccnc2cc(Cl)ccc12 [Hydroxychloroquine] + Cc1nc(NC(=O)N2CCC[C@H]2C(N)=O)sc1-c1ccnc(C(C)(C)C(F)(F)F)c1 [Alpelisib] (partner 2 µM)
In short: as §1

Cell Line	relative viability ([1]; first compound 0.5 µM)	relative viability ([1]; first compound 1.581 µM)	relative viability ([1]; first compound 5 µM)	relative viability ([1]; first compound 15.81 µM)	relative viability ([1]; first compound 50 µM)	relative viability ([2]; first compound 0.5 µM)	relative viability ([2]; first compound 1.581 µM)	relative viability ([2]; first compound 5 µM)	relative viability ([2]; first compound 15.81 µM)	relative viability ([2]; first compound 50 µM)	relative viability ([3]; first compound 0.5 µM)	relative viability ([3]; first compound 1.581 µM)	relative viability ([3]; first compound 5 µM)	relative viability ([3]; first compound 15.81 µM)	relative viability ([3]; first compound 50 µM)	relative viability ([4]; first compound 0.5 µM)	relative viability ([4]; first compound 1.581 µM)	relative viability ([4]; first compound 5 µM)	relative viability ([4]; first compound 15.81 µM)	relative viability ([4]; first compound 50 µM)
NCI-H1666	0.816	0.81	0.834	0.82	0.808	0.572	0.483	0.681	0.61	0.538	0.764	0.773	0.771	0.813	0.724	0.99	0.996	0.873	0.882	0.668
NCI-H1734	0.555	0.526	0.581	0.606	0.677	1.13	0.99	0.992	1.05	0.99	0.817	0.748	0.914	0.894	0.903	0.674	0.696	0.362	0.781	0.668
NCI-H1755	0.797	0.617	0.628	0.649	0.574	1.06	0.875	1.02	1	1.02	1.02	0.838	0.933	0.972	0.878	0.925	0.877	0.908	0.956	0.911
NCI-H1792	0.797	0.729	0.715	1.04	0.825	0.889	0.923	0.831	0.793	0.93	0.534	0.588	0.583	0.536	0.56	0.677	0.698	0.65	0.392	0.664
NCI-H1793	0.334	0.226	0.226	0.234	0.262	0.57	0.556	0.649	0.603	0.691	0.774	0.758	1.06	0.941	0.964	0.832	0.738	0.635	0.736	0.749
NCI-H1915	0.648	0.53	0.599	0.583	0.685	0.958	0.91	1	1.07	1.02	1.11	1.13	1.11	1.09	1.11	1.03	1.08	1.06	1.13	1.07
NCI-H1944	0.445	0.33	0.418	0.337	0.453	0.762	0.755	0.797	0.867	0.967	1.12	1.09	1.16	1.11	1.19	0.797	0.778	0.858	0.794	0.848
NCI-H1975	0.846	0.74	0.711	0.868	0.991	0.989	0.867	0.874	0.891	1.18	0.938	0.949	0.92	1.04	1.06	0.642	0.668	0.631	0.697	0.75
